Some test systems named below: SF-295 CNS; LOX IMVI melanoma; SW-620 colon; OVCAR-8 ovarian; SR leukemia; OVCAR-5 ovarian; MOLT-4 leukemia; UACC-62 melanoma; SF-268 CNS; HL-60(TB) leukemia.
What all share (assay): NCI anticancer screen, dose series, 48 h

SMILES strings stand for the structures. Where “and” joins values, the source holds several entries; their conditions need not be identical. Equal entries are not always repeated.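 In this assay, cells in 96-well plates receive the compound at five concentrations for 48 hours. Endpoints are linearly interpolated between the surrounding concentrations. GI50 marks 50% less growth. The concentration for full growth arrest is given as TGI.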 *1 amine or outer side, *2 acyl side, *3 side chain or, on linkers, in order; H or OH if unused. Where a SMILES comes first, the peptide text is derived from it. Bridges are numbered along the chain shown (N, C = ends). Roman numbers before positions name the chains, in order. [ ]: non-standard residue; d: D form. Actinocin(9to1) = Cc1c2oc3c(C)ccc(C(=O)[*:1])c3nc-2c(C(=O)[*:2])c(N)c1=O; NMeV = CN[CH](C(=O)O)C(C)C; Sar = CNCC(=O)O

In the case of `COC1CC(C)C(OC)c2cc(O)cc(c2O)NC(=O)/C(C)=C/C=C\C(C)C(OC(N)=O)/C(C)=C\C(C)C1OC` (stereo not given), the GI50 in the experiment with SF-295 CNS was 0.665 µM; in the experiment with LOX IMVI melanoma, 0.165 µM and 0.255 µM; with SW-620 colon, 0.0544 µM and 0.0649 µM; in the experiment with OVCAR-8 ovarian, 0.704 µM and 0.602 µM; in the experiment on SR leukemia, 0.191 µM and 0.11 µM; with OVCAR-5 ovarian it was 0.549 µM. For the same molecule, the GI50 is 0.0437 µM and 0.0746 µM in the experiment with MOLT-4 leukemia; 0.162 µM in the experiment on UACC-62 melanoma; 0.693 µM and 0.279 µM with SF-268 CNS; 0.075 µM and 0.227 µM and 0.0937 µM in the experiment on HL-60(TB) leukemia. Also, the TGI with SF-295 CNS is 9.09 µM and 8.02 µM; in the experiment with LOX IMVI melanoma it was 1.74 µM and 6.91 µM; in the experiment with SW-620 colon, 3.7 µM and 3.97 µM; in the experiment on OVCAR-8 ovarian, 11.8 µM and 26.9 µM; with SR leukemia it was 2 µM and 6.31 µM; with OVCAR-5 ovarian, 20.5 µM and 11 µM. Moreover, the TGI with UACC-62 melanoma was 8.89 µM and 5.83 µM; with SF-268 CNS it was 21.1 µM and 11 µM; in the experiment on HL-60(TB) leukemia it was 1.48 µM and 0.578 µM.

As for `C=C1C(=O)O[C@H]2[C@H]1CC/C(Cn1cc(Cc3c[nH]c4ccccc34)nn1)=C\CC[C@@]1(C)O[C@@H]21`, the GI50 in the experiment on SF-295 CNS was 4.71 µM; in the experiment with LOX IMVI melanoma, 1.55 µM; in the experiment on SW-620 colon, 1.74 µM; with OVCAR-8 ovarian, 3.44 µM; in the experiment with SR leukemia, 0.389 µM; in the experiment with OVCAR-5 ovarian, 1.8 µM. Besides, the GI50 in the experiment with MOLT-4 leukemia is 2.29 µM; in the experiment on UACC-62 melanoma it was 1.66 µM; in the experiment on SF-268 CNS, 1.7 µM; in the experiment on HL-60(TB) leukemia it was 2.02 µM. For the same molecule, the TGI in the experiment with SF-295 CNS is 17.2 µM; with LOX IMVI melanoma, 3.03 µM; in the experiment on SW-620 colon it was 3.56 µM; in the experiment on OVCAR-8 ovarian, 10.7 µM; with SR leukemia it was 8.32 µM; in the experiment on OVCAR-5 ovarian, 3.48 µM. The TGI in the experiment with MOLT-4 leukemia came to 6.04 µM; with UACC-62 melanoma, 3.13 µM; with SF-268 CNS, 3.27 µM; in the experiment on HL-60(TB) leukemia, 4.74 µM.

As to `CCC#CC[C@H](O)C/C=C1/C(=O)C=C[C@@H]1C/C=C\CCCC(=O)OC`, the GI50 in the experiment on SF-295 CNS was 1.28 µM; in the experiment on LOX IMVI melanoma, 0.754 µM; with SW-620 colon, 1.49 µM; in the experiment on OVCAR-8 ovarian, 1.24 µM; in the experiment on SR leukemia, 0.278 µM; in the experiment on OVCAR-5 ovarian, 1.81 µM. Besides, the GI50 in the experiment with MOLT-4 leukemia is 0.78 µM; with UACC-62 melanoma, 1.04 µM; with SF-268 CNS it was 2.05 µM; in the experiment with HL-60(TB) leukemia, 1.31 µM. Further, the TGI came out at 3.15 µM in the experiment on SF-295 CNS; 1.54 µM in the experiment on LOX IMVI melanoma; 4.83 µM with SW-620 colon; 4.76 µM in the experiment on OVCAR-8 ovarian; 38.2 µM with SR leukemia; 7.88 µM with OVCAR-5 ovarian. The TGI came to 7.17 µM with MOLT-4 leukemia, 2.82 µM in the experiment with UACC-62 melanoma, 9.22 µM in the experiment on SF-268 CNS and 3.91 µM in the experiment on HL-60(TB) leukemia.

On to `Cc1cc(C(=O)Nc2cc(Oc3ccc4nc(NC(=O)C5CC5)cn4n3)ccc2C)n(C)n1`, for which the GI50 was greater than 10 µM in the experiment on SF-295 CNS; greater than 10 µM with LOX IMVI melanoma; greater than 10 µM with SW-620 colon; greater than 10 µM with OVCAR-8 ovarian; 2.26 µM with SR leukemia; greater than 10 µM in the experiment on OVCAR-5 ovarian. Moreover, the GI50 with MOLT-4 leukemia is greater than 10 µM; in the experiment with UACC-62 melanoma, greater than 10 µM; with SF-268 CNS, greater than 10 µM; with HL-60(TB) leukemia, 9.56 µM. The TGI in the experiment on SF-295 CNS, in the experiment on LOX IMVI melanoma, in the experiment with SW-620 colon, in the experiment on OVCAR-8 ovarian, in the experiment on SR leukemia and with OVCAR-5 ovarian was greater than 10 µM throughout. For the same molecule, the TGI with MOLT-4 leukemia, in the experiment on UACC-62 melanoma, with SF-268 CNS and with HL-60(TB) leukemia was greater than 10 µM throughout.

On to `O=C1Nc2ccccc2/C1=C\c1cccc(/C=C2/C(=O)Nc3ccccc32)n1`, for which the GI50 with SF-295 CNS is 0.499 µM; with LOX IMVI melanoma, 0.19 µM; with SW-620 colon, 0.162 µM; in the experiment with OVCAR-8 ovarian, 0.3 µM; in the experiment on SR leukemia, 0.231 µM; in the experiment with OVCAR-5 ovarian, 0.888 µM. Besides, the GI50 in the experiment with MOLT-4 leukemia is 0.509 µM; in the experiment on UACC-62 melanoma, 0.32 µM; in the experiment with SF-268 CNS it was 0.362 µM; in the experiment with HL-60(TB) leukemia it was 0.452 µM. The TGI was 2.24 µM in the experiment on SF-295 CNS; 0.44 µM in the experiment on LOX IMVI melanoma; 0.329 µM in the experiment with SW-620 colon; 1.13 µM in the experiment with OVCAR-8 ovarian; 4.88 µM with SR leukemia; 2.4 µM with OVCAR-5 ovarian. Further, the figures for the TGI in the experiment on UACC-62 melanoma and in the experiment on SF-268 CNS were 0.962 µM and 1.39 µM, respectively.

On to `CCOc1cc(C(=O)O)c2c(ccc3ccc(OC)c(OC)c32)c1OC`, for which the TGI in the experiment with SF-295 CNS, in the experiment with LOX IMVI melanoma, in the experiment with SW-620 colon, in the experiment with OVCAR-8 ovarian, with SR leukemia and with OVCAR-5 ovarian was greater than 100 µM in each case. Also, the TGI in the experiment with MOLT-4 leukemia, in the experiment with UACC-62 melanoma, in the experiment on SF-268 CNS and in the experiment on HL-60(TB) leukemia was greater than 100 µM in each case.

On to `CC1(C)OC2CC3COC(=O)C3CC2O1` (stereo not given), for which the TGI with SF-295 CNS, in the experiment with LOX IMVI melanoma, in the experiment with SW-620 colon, in the experiment on OVCAR-8 ovarian, with SR leukemia and with OVCAR-5 ovarian was greater than 100 µM each time. The TGI in the experiment on MOLT-4 leukemia, in the experiment with UACC-62 melanoma, in the experiment with SF-268 CNS and in the experiment with HL-60(TB) leukemia was greater than 100 µM throughout.

As for `Cc1c2oc3c(C)ccc(C(=O)OC(C)C4NC(=O)C(C(C)C)N(C)C(=O)CN(C)C(=O)C5CCCN5C(=O)C(C(C)C)NC4=O)c3nc-2c(C(=O)OC(C)C2NC(=O)C(C(C)C)N(C)C(=O)CN(C)C(=O)C3CCCN3C(=O)C(C(C)C)NC2=O)c(N)c1=O` (stereo not given) (I: cyclo([Sar][NMeV]TVP) / II: cyclo([Sar][NMeV]TVP); linker I:3-II:3 via Actinocin(9to1); configuration not given here), the GI50 in the experiment on SF-295 CNS is less than 0.01 µM; with LOX IMVI melanoma it was less than 0.01 µM; in the experiment on SW-620 colon, less than 0.01 µM; in the experiment on OVCAR-8 ovarian it was less than 0.01 µM; in the experiment with SR leukemia, less than 0.01 µM; in the experiment with OVCAR-5 ovarian it was 0.0114 µM. Moreover, the GI50 in the experiment with MOLT-4 leukemia is less than 0.01 µM; with UACC-62 melanoma it was less than 0.01 µM; in the experiment on SF-268 CNS, less than 0.01 µM; with HL-60(TB) leukemia, less than 0.0165 µM. Further, the TGI in the experiment on SF-295 CNS is 1.53 µM; in the experiment on LOX IMVI melanoma it was greater than 35 µM; with SW-620 colon it was 17.7 µM; with SR leukemia, greater than 100 µM; in the experiment on OVCAR-5 ovarian, 21.6 µM; in the experiment with UACC-62 melanoma, 0.0125 µM. In addition, the TGI turned out to be 0.913 µM in the experiment on SF-268 CNS and 0.212 µM with HL-60(TB) leukemia.

The values above are taken from PubChem BioAssay (NCI).
